According to publication PMC9571063 (Molecules, 2022):

How the values were obtained:
[1] = molecular target: T1, JAK3(JH1domain-catalytic) (Homo sapiens, UniProt P52333); assay: KINOMEscan; type: binding; conditions: read-out: Percent Control
T1 construct: JAK3(JH1domain-catalytic); purchased Eurofins DiscoverX KINOMEscan (scanMAX 468)

KIT-autoinhibited = molecular target: T2, KIT-autoinhibited (Homo sapiens, UniProt P10721); assay: KINOMEscan; type: binding; conditions: read-out: Percent Control
T2 construct: purchased Eurofins DiscoverX KINOMEscan (scanMAX 468)
T2 sequence (P10721 26-976): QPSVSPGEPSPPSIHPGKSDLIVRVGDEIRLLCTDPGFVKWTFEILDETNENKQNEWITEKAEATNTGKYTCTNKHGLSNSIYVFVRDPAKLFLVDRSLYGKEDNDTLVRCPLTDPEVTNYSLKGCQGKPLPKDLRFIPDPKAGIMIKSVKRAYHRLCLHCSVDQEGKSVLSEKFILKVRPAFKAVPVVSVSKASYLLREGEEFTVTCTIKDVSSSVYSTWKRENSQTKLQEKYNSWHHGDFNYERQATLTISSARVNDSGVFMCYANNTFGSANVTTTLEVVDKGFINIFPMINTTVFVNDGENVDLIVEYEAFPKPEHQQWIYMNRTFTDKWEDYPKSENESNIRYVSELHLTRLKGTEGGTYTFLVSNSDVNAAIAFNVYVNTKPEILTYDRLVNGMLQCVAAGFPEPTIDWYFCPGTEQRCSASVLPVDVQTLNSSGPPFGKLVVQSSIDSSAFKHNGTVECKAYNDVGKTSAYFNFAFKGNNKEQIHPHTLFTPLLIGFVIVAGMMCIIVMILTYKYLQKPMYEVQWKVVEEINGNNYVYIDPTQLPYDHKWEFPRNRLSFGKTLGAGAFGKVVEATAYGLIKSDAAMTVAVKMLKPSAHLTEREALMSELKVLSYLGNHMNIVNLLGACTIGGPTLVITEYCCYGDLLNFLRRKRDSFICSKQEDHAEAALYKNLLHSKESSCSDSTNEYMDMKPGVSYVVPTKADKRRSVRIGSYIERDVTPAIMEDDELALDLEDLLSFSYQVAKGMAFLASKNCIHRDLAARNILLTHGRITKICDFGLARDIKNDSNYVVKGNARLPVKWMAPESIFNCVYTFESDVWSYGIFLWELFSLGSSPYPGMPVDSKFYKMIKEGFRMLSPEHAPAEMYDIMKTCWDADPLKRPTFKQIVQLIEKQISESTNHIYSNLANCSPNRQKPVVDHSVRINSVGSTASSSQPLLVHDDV

T1 sequence (P52333 813-1124 limits assumed): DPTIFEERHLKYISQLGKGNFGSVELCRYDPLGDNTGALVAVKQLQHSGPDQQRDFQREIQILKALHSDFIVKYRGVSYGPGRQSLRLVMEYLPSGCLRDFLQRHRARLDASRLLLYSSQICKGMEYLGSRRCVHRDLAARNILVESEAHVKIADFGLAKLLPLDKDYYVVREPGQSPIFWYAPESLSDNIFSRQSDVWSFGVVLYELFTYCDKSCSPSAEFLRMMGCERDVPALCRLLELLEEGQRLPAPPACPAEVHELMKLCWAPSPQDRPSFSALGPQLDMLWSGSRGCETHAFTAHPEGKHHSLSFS

Cc1ccc(-n2cc(COc3cccc4cnc(Nc5cccc(Cl)c5)nc34)nn2)c([N+](=O)[O-])c1 [DB18]
remaining binding at 1 µM [1]: 93%
remaining binding at 1 µM (KIT-autoinhibited): 97%
